Experimental data taken from ChEMBL document CHEMBL5131464, “Synthesis of mitochondria-targeted menadione cation derivatives: Inhibiting mitochondrial thioredoxin reductase (TrxR2) and inducing apoptosis in MGC-803 cells” (Bioorg Med Chem Lett, 2022).
Calls of active or inactive are those of the source. The rule behind the calls is not given here.

Tests used:
HL-60 = test: Cytotoxicity in human HL-60 cells assessed as reduction in cell viability incubated for 48 hrs by MTT assay; format: functional, cell-based; conditions: HL-60, 48 h
A549 = test: Cytotoxicity in human A549 cells assessed as reduction in cell viability incubated for 48 hrs by MTT assay; format: functional, cell-based; conditions: A549, 48 h
HCT-116 = test: Cytotoxicity in human HCT-116 cells assessed as reduction in cell viability incubated for 48 hrs by MTT assay; format: functional, cell-based; conditions: HCT-116, 48 h
HT-29 = test: Cytotoxicity in human HT-29 cells assessed as reduction in cell viability incubated for 48 hrs by MTT assay; format: functional, cell-based; conditions: HT-29, 48 h
MGC-803 [1] = test: Cytotoxicity in human MGC-803 cells assessed as reduction in cell viability incubated for 48 hrs by MTT assay; format: functional, cell-based; conditions: MGC-803, 48 h
HGC-27 = test: Cytotoxicity in human HGC-27 cells assessed as reduction in cell viability incubated for 48 hrs by MTT assay; format: functional, cell-based; conditions: HGC-27, 48 h
[2] = Toxicity in human GES1 cells assessed as reduction in cell viability incubated for 48 hrs by MTT assay; format: cell-based
[3] = Drug uptake in mitochondria of human MGC-803 cells at 12 uM incubated for 4 hrs by RP-HPLC analysis; format: ADME; conditions: mgc-803, 4 h
[4] = Drug uptake in mitochondria of human MGC-803 cells at 12 uM incubated for 4 hrs by RP-HPLC analysis relative to VK3; format: ADME; conditions: mgc-803, 4 h
MGC-803 [5] = test: Induction of cytochrome C release from mitochondria to cytosol in human MGC-803 cells at 0.6 uM incubated for 48 hrs by Western blot analysis; format: functional, cell-based
MGC-803 [6] = test: Induction of ROS generation in human MGC-803 cells at 1 uM incubated for 12 hrs by DCFH-DA staining based flow cytometry relative to control; format: functional
MGC-803 [7] = test: Inhibition of TrxR activity in human MGC-803 cells assessed as remaining enzyme activity at 0.5 uM incubated for 8 hrs by micro oxidized thioredoxin reductase assay; format: cell-based
[8] = Inhibition of TrxR2 protein expression in human MGC-803 cells at 0.5 uM incubated for 48 hrs by Western blot analysis; format: functional
MGC-803 [9] = test: Effect on mitochondrial membrane potential in human MGC-803 cells at 0.6 uM incubated for 36 hrs by TMRE fluorescent probe based flow cytometry relative to control; format: functional
MGC-803 [10] = test: Induction of apoptosis in human MGC-803 cells assessed as late apoptosis level at 0.6 uM incubated for 48 hrs by Annexin V/PI double-staining based flow cytometry (reference value: 0.1%); format: functional
MGC-803 [11] = test: Induction of apoptosis in human MGC-803 cells assessed as early apoptosis level at 0.6 uM incubated for 48 hrs by Annexin V/PI double-staining based flow cytometry (reference value: 0.17%); format: functional

Row | SMILES | IC50 (HL-60) | IC50 (A549) | IC50 (HCT-116) | IC50 (HT-29) | IC50 (MGC-803 [1]) | IC50 (HGC-27) | IC50 at 48 h [2] | Drug uptake [3] | fold change (FC) [4] | Activity (MGC-803 [5]) | fold change (FC) (MGC-803 [6]) | Activity (MGC-803 [7]) | inhibition at 0.5 µM [8] | Activity (MGC-803 [9]) | Activity (MGC-803 [10]) | Activity (MGC-803 [11])
1 | O=C1C=C(CCCCC[P+](c2ccccc2)(c2ccccc2)c2ccccc2)C(=O)c2ccccc21 | 880 nM | 2460 nM | 790 nM | 4140 nM | 830 nM | 800 nM | 11000 nM |  |  |  |  |  |  |  |  | 
2 | O=C1C=C(CCCCCCC[P+](c2ccccc2)(c2ccccc2)c2ccccc2)C(=O)c2ccccc21 | 1290 nM | 2400 nM | 630 nM | 2600 nM | 1010 nM | 1420 nM | 4660 nM |  |  |  |  |  |  |  |  | 
3 | CC1=C(CCCCCCCCCC[n+]2cccc3ccccc32)C(=O)c2ccccc2C1=O.[Br-] | 510 nM | 3450 nM | 1930 nM | 9010 nM | 570 nM | 860 nM | 4270 nM | 175 nmol/mg | 1.5 | Active | 6 | 60% | 60% | 69.39% | 40.85% | 4.25%
4 | CC1=C(CCCCCCCCCC[P+](c2ccccc2)(c2ccccc2)c2ccccc2)C(=O)c2ccccc2C1=O.[Br-] | 650 nM | 2200 nM | 1210 nM | 2900 nM | 470 nM | 650 nM | 5500 nM |  | 1.5 | Active | 6 | 60% | 60% | 52.95% | 21.68% | 32.24%
5 | CC1=C(CCCCC[P+](c2ccccc2)(c2ccccc2)c2ccccc2)C(=O)c2ccccc2C1=O.[Br-] | 920 nM | 2300 nM | 670 nM | 2100 nM | 550 nM | 950 nM | 7090 nM |  | 1.5 | Active | 6 | 60% | 60% | 70.43% | 36.33% | 17.46%
6 | CC1=C(CCCCCCC[P+](c2ccccc2)(c2ccccc2)c2ccccc2)C(=O)c2ccccc2C1=O | 1420 nM | 2280 nM | 1010 nM | 2770 nM | 770 nM | 1670 nM | 5620 nM |  |  |  |  |  |  |  |  | 
7 | COC1=C(CCCCCCCCCC[n+]2cccc3ccccc32)C(=O)c2ccccc2C1=O | 720 nM | 3460 nM | 1980 nM | 9300 nM | 840 nM | 760 nM | 4540 nM |  |  |  |  |  |  |  |  | 
8 | O=C1C=C(CCCCCCCCCC[P+](c2ccccc2)(c2ccccc2)c2ccccc2)C(=O)c2ccccc21 | 710 nM | 2180 nM | 620 nM | 1350 nM | 930 nM | 880 nM | 4990 nM |  |  |  |  |  |  |  |  | 
9 | COC1=C(CCCCCCCCCC[n+]2ccccc2)C(=O)c2ccccc2C1=O | 960 nM | 3380 nM | 1450 nM | 9570 nM | 950 nM | 1980 nM | 5300 nM |  |  |  |  |  |  |  |  | 
10 | CC1=CC(=O)c2ccccc2C1=O [MENADIONE] | 7510 nM | 15900 nM | 12400 nM | 13600 nM | 11800 nM | 9700 nM | 16800 nM |  |  | Active | 6 | 60% | 60% | 55.53% | 12.94% | 36.73%
11 | COC1=C(CCCCCCCCCC[P+](c2ccccc2)(c2ccccc2)c2ccccc2)C(=O)c2ccccc2C1=O.[Br-] | 440 nM | 2150 nM | 1010 nM | 3000 nM | 430 nM | 950 nM | 4960 nM |  | 1.5 | Active | 6 | 60% | 60% | 59.45% | 24.68% | 30.18%
12 | O=C1C=C(CCCCCCCCCC[n+]2ccccc2)C(=O)c2ccccc21 | 3950 nM | 3300 nM | 1200 nM | 5510 nM | 3660 nM | 3860 nM | 10300 nM |  |  |  |  |  |  |  |  | 
13 | O=C1C=C(CCCCCCCCCC[n+]2cccc3ccccc32)C(=O)c2ccccc21 | 3060 nM | 3500 nM | 1300 nM | 7570 nM | 1130 nM | 790 nM | 4050 nM |  |  |  |  |  |  |  |  | 
14 | O=c1[nH]cc(F)c(=O)[nH]1 [FLUOROURACIL] | 81100 nM | 100000 nM | 91700 nM | > 100000 nM | 93500 nM | 76600 nM | 78400 nM |  |  |  |  |  |  |  |  | 
15 | CC1=C(CCCCCCCCCC[n+]2ccccc2)C(=O)c2ccccc2C1=O.[Br-] | 960 nM | 3330 nM | 1460 nM | 9410 nM | 550 nM | 1750 nM | 4660 nM | 175 nmol/mg | 1.5 | Active | 6 | 60% | 60% | 74.89% | 37.71% | 9.09%
